The record followed here is BindingDB's records for doi:10.1021/jm00103a005 (National Institute On Drug Abuse, 1993).

In assay [1] the target is Sigma non-opioid intracellular receptor 1 (Cavia porcellus) (UniProt Q60492). In words: Inhibition of specific binding of [125I]-PIPAG to sigma binding site in Guinea pig brain membranes.
For assay [2] the target is unchanged. In words: Inhibition of specific binding of [3H]DTG to sigma binding site in Guinea pig brain membranes.
Assay [3] has the same target. Description: Inhibition of specific binding of [3H]NANM of sigma binding site in Guinea pig brain membranes.
Assay [4] in a line: Inhibition of specific binding of [3H]3-PPP to sigma binding site in Guinea pig brain membranes.
The nature of assay [5]: Inhibition of specific binding of [3H]3-PPP to sigma receptor in Guinea pig brain membranes.
Assay [6] in a line: Inhibition of specific binding of [3H]DTG to sigma receptor in Guinea pig brain membranes.

Counter-ions that a name gives are not always drawn.

Chain of Sigma non-opioid intracellular receptor 1 (Cavia porcellus) (Q60492 whole entry, looked up): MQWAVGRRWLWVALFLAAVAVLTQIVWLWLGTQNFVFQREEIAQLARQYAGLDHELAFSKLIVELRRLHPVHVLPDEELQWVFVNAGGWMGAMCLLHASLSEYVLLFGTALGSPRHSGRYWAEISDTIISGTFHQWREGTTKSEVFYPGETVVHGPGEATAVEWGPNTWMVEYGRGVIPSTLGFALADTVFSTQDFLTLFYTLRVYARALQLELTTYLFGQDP

Turning to `CN1CCc2cccc3c2[C@H]1Cc1ccc(O)c(O)c1-3` [APOKYN], the IC50 was over 10000 nM in assay [1], over 10000 nM in assay [2] and over 31000 nM in assay [3].
`C=CCN1CC[C@]23c4c5ccc(O)c4O[C@H]2[C@@H](O)C=C[C@H]3[C@H]1C5` [NALORPHINE HYDROCHLORIDE]: the half-maximal inhibitory concentration (IC50) in assay [4] is 2850 nM; in assay [1] it was 5000 nM; in assay [2], 4000 nM; in assay [3] it was 1800 nM; in assay [5], 93 nM; in assay [6] it was 625 nM.
